Laboratory results from patent US20070225171A1 (priority 2001, published 2007).

Columns and labels:
[1] = system: tobacco dark fired cultivar KY 160 (non-GE control); test: Yield assay, 2,4-D sprayed on non-transgenic tobacco; type: in vivo, Nicotiana tabacum; settings: isooctyl ester formulation; for Plant Yield / Corrected Leaf Yield / Corrected Plant Yield / Leaf Yield: dry matter 21 days after spraying; for Percent Leaf Yield: 21 days after spraying
Description: The use of exogenously supplied synthetic auxins on agronomic crops to elicit direct non-herbicidal effects, with an emphasis on the potential enhancement of yield, was assessed using genetically-engineered (GE) tobacco plant lines expressing synthetic auxin metabolizing genes. Non-GE controls were used, permitting separation of the herbicidal and biological properties of the exogenously supplied synthetic auxins. Tobacco was utilized to model dry matter yield.
The research was conducted in a single phase entailing characterization of response variables when plants were subjected to maximum (1× rate=1 pound/acre of active ingredient) and low (¼×=4 ounces/acre of active ingredient) rates of exogenously applied 2,4-dichlorophenoxyacetic acid (2,4-D). GE lines of tobacco (dark fired cultivar “KY 160”) expressing a synthetic gene for auxin metabolism (SAD1 or SAD2) were used, along with non-GE lines of the same genotype as control material. Commercial tobacco production has long utilized decapitation (“topping”) to initiate a predictable increase in leaf weight, thickness, and dry matter yield. This yield increase is dependent upon variables, such as genotype and fertility. By utilizing controls of the same genotype and a fixed level of fertility, significant yield variation responses should be attributable to the treatment (exogenous auxin herbicide application).
The overall experimental design was comprised of three parallel completely randomized designs with spray rate and genotype as the main factors. Three replications were performed for each treatment within each experiment. Each replication was the average measurement of six plants. The tobacco lines were allowed to advance to the 6-8 leaf stage. Upon reaching this stage, the primary meristem was removed along with lower leaves so that only 4 leaves remained. Plants were then sprayed with herbicide and permitted to grow for an additional 21 days. At the end of this period, dry matter yields for both leaf and the whole plant were measured.
Yield data recorded for tobacco were leaf dry matter, leaf number, and total dry matter. Corrected plant yield and corrected leaf yield were calculated for each replication as the leaf dry matter divided by leaf number then multiplied by the expected number of leaves (6 plants×4 leaves=24). This corrected leaf yield was then added to stem yield fraction (arrived at by subtracting actual leaf yield from total plant yield) to create a corrected total plant yield. All tobacco yield measurements were recorded in grams after a 7-day drying period in ambient air dryers.
Seed of non-transgenic tobacco lines were germinated on MS03 (MS salts, B5 vitamins, 3% sucrose) medium. Transgenic seeds were germinated on the same medium augmented with 300 mg/L kanamycin monosulfate to allow detection of any seedlings failing to carry the transgene. Thirty days after germination, seedlings were transplanted to the greenhouse into flats holding 8 trays of 6 plants each for a total of 48 plants. Plants were permitted to grow for approximately 45 days, at which time 6-8 leaves had developed. Prior to spraying, the top of the plant retaining the uppermost two leaves was removed (decapitated) resulting in the retention of 4 fully-extended leaves for each plant.
For spray assays and for the yield studies, spraying was performed in an Allen Machine Works Spray Cabinet. Spray rates were established as the equivalent of 16 ounces of active ingredient per acre (1× rate), 4 ounces active ingredient/acre (¼× rate), and the control (no active ingredient per acre or 0×). The herbicide used was 2,4-D, isooctyl ester formulation (3.9 pounds of active ingredient/gallon) at equivalent rates noted above. To achieve this equivalent 1× field rate, 500 microliters of herbicide were diluted into a total volume of 50 ml. The ¼× field rate was achieved by diluting 125 microliters of herbicide in a 50 ml volume. […]

[2] = system: Plants expressing the dioxygenase encoded by the tfdA gene; test: Herbicide tolerance of plants expressing the tfdA dioxygenase; type: in vivo; settings: found by applicant
From the text: See, e.g., Llewellyn and Last, in Herbicide-Resistant Crops Chapter 10, pages 159-174 (Duke, ed., CRC Lewis Publishers 1996). Preferably, additional bacterial codons of the tfdA coding sequence are replaced by plant-preferred codons to obtain better expression of the encoded dioxygenase. […] See, e.g., Llewellyn and Last, in Herbicide-Resistant Crops Chapter 10, pages 159-174 (Duke, ed., CRC Lewis Publishers 1996) and U.S. Pat. Nos. 6,100,446 and 6,153,401.

[3] = system: tomato genotype UC82L (control); test: Fruit yield assay, 2,4-D sprayed on non-transgenic tomato; type: in vivo, Lycopersicon esculentum; settings: for Total Yield (Fresh Fruit Yield) / Fruit Weight (Average Fresh Fruit Weight) / Total Flowers / Fruit per Plant / Total Fruit No.: UC82L; for Total Yield (Fresh Fruit Yield): harvested over 60 days; for Fruit Weight (Average Fresh Fruit Weight) / Total Flowers / Fruit per Plant / Total Fruit No.: 60 days; for Total Flowers: Flower Number/plant/replication/treatment; for Fruit per Plant: Fruit Number/plant/replication/treatment; for Total Fruit No.: Total Fruit Number/replication/treatment
From the text: The use of exogenously supplied synthetic auxins on agronomic crops to elicit direct non-herbicidal effects was further assessed using genetically-engineered tomato plant lines expressing a synthetic auxin metabolizing gene, and non-genetically-engineered controls. Tomato was utilized to model fruit retention (fruit set) and fruit yield. The transgenic tomato line was utilized in the T2 generation with the transgene fixed in a homozygous fashion. The tomato genotype UC82L was utilized as the control, as well as the background for tranformation with the pPZP211-PNPT-311-SAD2 binary plasmid. This genotype was chosen because it is more likely to closely approximate the behavior of field-grown tomatoes than some short-life-cycle laboratory strains of tomato.
In the same manner as for tobacco, the research was conducted in a single phase entailing characterization of response variables when plants were subjected to the maximum (1× rate=1 pound/acre of active ingredient) and low (¼×=4 ounces/acre of active ingredient) rates of exogenously applied 2,4-D. The overall experimental design was comprised of three parallel completely randomized designs with spray rate and genotype as the main factors. Three replications were performed for each treatment within each experiment. Each replication was the average of three plants that were harvested over a period of 60 days. Fruit number, fruit weight and flower number were measured directly, with average fruit weight and average fruit per plant being derived by dividing fruit weight and fruit number within a replication by the number of plants (3). Tomato fruit yield was measured on fresh fruit and recorded in grams.
Non-transgenic and transgenic seed were germinated and grown as described in Example 1 for tobacco. The transgenic tomato line was utilized in the T2 generation with the transgene fixed in a homozygous fashion.
The plants with 4 fully-extended leaves retained were sprayed as described in Example 1. Each replication (3 plants) was sprayed independently and permitted to dry before being moved back to the greenhouse for further growth for 60 days.
Fruit number, fruit weight, and flower number were measured directly during this 60-day period. Tomato fruit yield was measured on fresh fruit and recorded in grams.

`O=C(O)COc1ccc(Cl)cc1Cl` [2,4-D, 2,4-dichlorophenoxyacetic acid] was tested, and the “Plant Yield” value ([1]; 2,4-D rate 1X (1 pound active ingredient/acre)) was 27.7 grams/plant/replication/treatment, the “Percent Leaf Yield” value ([1]; 2,4-D rate 1X) was 33.2% and the “Corrected Leaf Yield” value ([1]; 2,4-D rate 1X) was 9.4 grams/plant/replication/treatment. For the same molecule, the “Corrected Plant Yield” value ([1]; 2,4-D rate 1X) was 28.2 grams/plant/replication/treatment, the “Leaf Yield” value ([1]; 2,4-D rate 1X) was 9.0 grams/plant/replication/treatment and the “Plant Yield” value ([1]; 2,4-D rate ¼X (4 ounces active ingredient/acre)) was 33.1 grams/plant/replication/treatment. The “Percent Leaf Yield” value ([1]; 2,4-D rate ¼X) was 35.2%, the “Corrected Leaf Yield” value ([1]; 2,4-D rate ¼X) was 12.2 grams/plant/replication/treatment and the “Corrected Plant Yield” value ([1]; 2,4-D rate ¼X) was 34.3 grams/plant/replication/treatment. For the same molecule, the “Leaf Yield” value ([1]; 2,4-D rate ¼X) was 11.0 grams/plant/replication/treatment, the “tolerance of plants to the herbicide” value [2] was “tolerant” and the “Total Yield (Fresh Fruit Yield)” value ([3]; spray rate 1X (1 pound active ingredient/acre), 2,4-D isooctyl ester formulation) was 35.3 grams/plant/replication/treatmen. For the same molecule, the “Fruit Weight (Average Fresh Fruit Weight)” value ([3]; spray rate 1X) was 14.1 grams/fruit/plant/replication/treatment, the “Total Flowers” value ([3]; spray rate 1X) was 4.3 and the “Fruit per Plant” value ([3]; spray rate 1X) was 0.6. The “Total Fruit No.” value ([3]; spray rate 1X) was 2.3, the “Total Yield (Fresh Fruit Yield)” value ([3]; spray rate ¼X (4 ounces active ingredient/acre), 2,4-D isooctyl ester formulation) was 66.1 grams/plant/replication/treatmen and the “Fruit Weight (Average Fresh Fruit Weight)” value ([3]; spray rate ¼X) was 26.0 grams/fruit/plant/replication/treatment. The “Total Flowers” value ([3]; spray rate ¼X) was 6.0, the “Fruit per Plant” value ([3]; spray rate ¼X) was 0.8 and the “Total Fruit No.” value ([3]; spray rate ¼X) was 3.0. For the same molecule, the “effect on average fruit weight” value ([3]; control line, ¼× rate) was “increase in average fruit weight” and the “effect on total flower number” value ([3]; control material, ¼× rate) was “reducing the number of flowers”.
